From US9187472B2 (AbbVie Inc., priority 2012, dated 2015) come the findings set out here.

Experiment [1] addresses NAMPT (human, recombinant, C-terminally His-tagged) (Homo sapiens, UniProt P43490). Put plainly: Time-Resolved Fluorescence Resonance Energy Transfer (TR-FRET) Binding Assay of NAMPT. To be noted: without substrates; 6.8 nM NAMPT, 200 nM probe, 3 hours equilibration. In outline:
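A TR-FRET probe-displacement assay used 6.8 nM His-tagged recombinant human NAMPT, 200 nM Oregon Green 488-labelled nicotinamide-competitive probe and 1 nM Tb-anti-His antibody. Buffer was HEPES pH 7.5 with NaCl, MgCl2, DTT and glycerol, plus 2% DMSO, equilibrated 3 h at room temperature. Em520/Em495 ratios, normalized to controls, gave IC50 by four-parameter logistic fit.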
On the technique in general: In TR-FRET formats the signal depends on donor and acceptor labels being close together.

Another experiment has as its target NAMPT (Homo sapiens, UniProt P43490). Put plainly: TR-FRET Binding Assay of NAMPT with PRPP. The note with it: with 200 μM PRPP and 2.5 mM ATP; 2 nM NAMPT, 2 nM probe, 16 hours equilibration. The method in brief:
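Human NAMPT (2 nM) with 2 nM probe and 1 nM Tb-anti-His antibody, plus 200 μM PRPP and 2.5 mM ATP, 2% DMSO. TR-FRET read after 16 h equilibration, permitting possible enzymatic modification of test compounds; data processing as for the substrate-free format.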

The test system of the next experiment is PC3 cells. Put plainly: NAMPT Cell Proliferation Assay. The note with it: Homo sapiens, PC-3, 120 h, 5 days incubation, cell viability by Cell Titer Glo. The experiment is classed as cell-based. The method in brief:
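Proliferation of PC3 cells treated 5 days with a 10-fold compound series (top 10 μM) was quantified by Cell Titer Glo luminescence; IC50s were fitted from percent inhibition.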
In general terms: ATP-based viability assays read luminescence as a measure of living cells.

NAMPT, sequence (P43490 whole entry): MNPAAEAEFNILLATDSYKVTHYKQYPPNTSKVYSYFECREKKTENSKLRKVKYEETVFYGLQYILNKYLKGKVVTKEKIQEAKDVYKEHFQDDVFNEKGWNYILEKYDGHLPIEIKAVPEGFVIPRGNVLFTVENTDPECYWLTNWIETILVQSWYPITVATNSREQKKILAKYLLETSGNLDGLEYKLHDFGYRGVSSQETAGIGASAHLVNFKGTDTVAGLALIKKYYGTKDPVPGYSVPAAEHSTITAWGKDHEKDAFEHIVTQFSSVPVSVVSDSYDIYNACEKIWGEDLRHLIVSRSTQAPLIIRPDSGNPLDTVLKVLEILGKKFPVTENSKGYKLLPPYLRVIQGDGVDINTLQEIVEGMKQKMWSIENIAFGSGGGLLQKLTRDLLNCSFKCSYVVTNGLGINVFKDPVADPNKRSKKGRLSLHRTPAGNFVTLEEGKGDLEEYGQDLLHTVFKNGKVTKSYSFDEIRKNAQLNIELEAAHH
NAMPT (human, recombinant, C-terminally His-tagged), sequence (P43490 whole entry): as above

Usually IC50 stands for the midpoint of a concentration-inhibition curve. In the case of `O=C(CCC1CCCC1)Nc1ccc(C(=O)NCc2ccn3ccnc3c2)cc1` [Example 212, 4-[(3-cyclopentylpropanoyl)amino]-N-(imidazo[1,2-a]pyridin-7-ylmethyl)benzamide], the IC50 was 44.8 nM in experiment [1], 0.21 nM on NAMPT and 34.1 nM in the experiment on PC3 cells.

With `CC(C)CCC(=O)Nc1ccc(C(=O)NCc2ccn3ccnc3c2)cc1` [Example 213, N-(imidazo[1,2-a]pyridin-7-ylmethyl)-4-[(4-methylpentanoyl)amino]benzamide], the results for the IC50 (in experiment [1]; on NAMPT; in the experiment with PC3 cells) were 116 nM, 0.271 nM and 39.7 nM, respectively.

As for `O=C(CC1CCOC1)Nc1ccc(C(=O)NCc2ccn3ccnc3c2)cc1` (stereo not drawn) [Example 214, N-(imidazo[1,2-a]pyridin-7-ylmethyl)-4-[(tetrahydrofuran-3-ylacetyl)amino]benzamide], the results for the IC50 (in experiment [1]; on NAMPT; in the experiment with PC3 cells) were 641 nM, 1.28 nM and 289 nM, respectively.

In the case of `N#Cc1ccc(CN(C(=O)CC2CCCC2)c2ccc(C(=O)NCc3ccc4nccn4c3)cc2)cc1` [Example 215, 4-[(4-cyanobenzyl)(cyclopentylacetyl)amino]-N-(imidazo[1,2-a]pyridin-6-ylmethyl)benzamide], the IC50 was 2010 nM in experiment [1], 3.04 nM on NAMPT and 686 nM in the experiment with PC3 cells.

For the molecule `CC(C)(C)OC(=O)N1CCC(c2ccc(NC(=O)NCc3ccn4ccnc4c3)cc2)CC1` [Example 216, tert-butyl 4-(4-{[(imidazo[1,2-a]pyridin-7-ylmethyl)carbamoyl]amino}phenyl)piperidine-1-carboxylate], the IC50 in experiment [1] worked out at 118 nM; at NAMPT, 0.19 nM; in the experiment with PC3 cells, 6.59 nM.

In the case of `CC(C)(C)OC(=O)N1CCC(c2ccc(C(=O)NCc3ccn4ccnc4c3)cc2)CC1` [Example 217, tert-butyl 4-{4-[(imidazo[1,2-a]pyridin-7-ylmethyl)carbamoyl]phenyl}piperidine-1-carboxylate], the figures for the IC50 (in experiment [1]; at NAMPT; in the experiment with PC3 cells) were 220 nM, 0.2 nM and 3.42 nM, respectively.

Turning to `O=C(NCc1ccn2ccnc2c1)c1cnc(N2CC(COCc3ccccc3)OC2=O)s1` (stereo not drawn) [Example 218, 2-{5-[(benzyloxy)methyl]-2-oxo-1,3-oxazolidin-3-yl}-N-(imidazo[1,2-a]pyridin-7-ylmethyl)-1,3-thiazole-5-carboxamide], the IC50 in experiment [1] amounted to 123 nM; on NAMPT it was 0.169 nM; with PC3 cells it was 71.1 nM.

On to `O=C(NCc1ccc2nccn2c1)c1ccc(-c2cnn(CC3CCCO3)c2)s1` (stereo not drawn) [Example 219, N-(imidazo[1,2-a]pyridin-6-ylmethyl)-5-[1-(tetrahydrofuran-2-ylmethyl)-1H-pyrazol-4-yl]thiophene-2-carboxamide], for which the IC50 turned out to be 79.4 nM in experiment [1], 0.903 nM on NAMPT and 5.59 nM in the experiment with PC3 cells.

Take `O=C(NCc1ccn2ccnc2c1)Nc1ccc(C2CCN(C(=O)C3CCCO3)CC2)cc1` (stereo not drawn) [Example 220, 1-(imidazo[1,2-a]pyridin-7-ylmethyl)-3-{4-[1-(tetrahydrofuran-2-ylcarbonyl)piperidin-4-yl]phenyl}urea]: the IC50 in experiment [1] is 74.2 nM; on NAMPT it was 0.278 nM; in the experiment on PC3 cells, 5.73 nM.

For the molecule `O=C(NCc1ccn2ccnc2c1)Nc1ccc(C2CCN(C(=O)C3CCOCC3)CC2)cc1` [Example 221, 1-(imidazo[1,2-a]pyridin-7-ylmethyl)-3-{4-[1-(tetrahydro-2H-pyran-4-ylcarbonyl)piperidin-4-yl]phenyl}urea], the IC50 in experiment [1] was 120 nM; on NAMPT, 0.352 nM; in the experiment with PC3 cells, 7.82 nM.

In the case of `O=C(NCc1ccn2ccnc2c1)Nc1ccc(C2CCN(C(=O)C3COCCO3)CC2)cc1` (stereo not drawn) [Example 222, 1-{4-[1-(1,4-dioxan-2-ylcarbonyl)piperidin-4-yl]phenyl}-3-(imidazo[1,2-a]pyridin-7-ylmethyl)urea], the figures for the IC50 (in experiment [1]; on NAMPT; in the experiment with PC3 cells) were 112 nM, 0.192 nM and 4.08 nM, respectively.

Consider `O=C(NCc1ccn2ccnc2c1)Nc1ccc(C2CCN(C(=O)CC3CCOCC3)CC2)cc1` [Example 223, 1-(imidazo[1,2-a]pyridin-7-ylmethyl)-3-{4-[1-(tetrahydro-2H-pyran-4-ylacetyl)piperidin-4-yl]phenyl}urea], for which the IC50 stood at 109 nM in experiment [1], 0.354 nM on NAMPT and 7.08 nM in the experiment with PC3 cells.

As for `O=C(NCc1ccn2ccnc2c1)Nc1ccc(C2CCN(C(=O)CN3CCOCC3)CC2)cc1` [Example 224, 1-(imidazo[1,2-a]pyridin-7-ylmethyl)-3-{4-[1-(morpholin-4-ylacetyl)piperidin-4-yl]phenyl}urea], the 50% inhibitory concentration (IC50) in experiment [1] came out at 233 nM; on NAMPT, 0.555 nM; in the experiment with PC3 cells it was 23 nM.

For `O=C(NCc1ccn2ccnc2c1)Nc1ccc(C2CCN(C(=O)CC3CCCO3)CC2)cc1` (stereo not drawn) [Example 225, 1-(imidazo[1,2-a]pyridin-7-ylmethyl)-3-{4-[1-(tetrahydrofuran-2-ylacetyl)piperidin-4-yl]phenyl}urea], the IC50 in experiment [1] is 155 nM; on NAMPT, 0.673 nM; in the experiment on PC3 cells it was 9.27 nM.

For the molecule `CC(C)(O)CC(=O)N1CCC(c2ccc(NC(=O)NCc3ccn4ccnc4c3)cc2)CC1` [Example 226, 1-{4-[1-(3-hydroxy-3-methylbutanoyl)piperidin-4-yl]phenyl}-3-(imidazo[1,2-a]pyridin-7-ylmethyl)urea], the IC50 was 113 nM in experiment [1], 0.608 nM at NAMPT and 7.26 nM with PC3 cells.

For `CC(C)(O)C(=O)N1CCC(c2ccc(NC(=O)NCc3ccn4ccnc4c3)cc2)CC1` [Example 227, 1-{4-[1-(2-hydroxy-2-methylpropanoyl)piperidin-4-yl]phenyl}-3-(imidazo[1,2-a]pyridin-7-ylmethyl)urea], the figures for the IC50 (in experiment [1]; at NAMPT; in the experiment with PC3 cells) were 16.2 nM, 0.273 nM and 6.28 nM, respectively.

On to `CC(C)C(=O)N1CCC(c2ccc(NC(=O)NCc3ccn4ccnc4c3)cc2)CC1` [Example 228, 1-(imidazo[1,2-a]pyridin-7-ylmethyl)-3-{4-[1-(2-methylpropanoyl)piperidin-4-yl]phenyl}urea], for which the IC50 in experiment [1] came to 49.4 nM; on NAMPT, 0.238 nM; in the experiment on PC3 cells, 8.56 nM.

As to `O=C(NCc1ccn2ccnc2c1)Nc1ccc(C2CCN(C(=O)c3ccccc3)CC2)cc1` [Example 229, 1-[4-(1-benzoylpiperidin-4-yl)phenyl]-3-(imidazo[1,2-a]pyridin-7-ylmethyl)urea], the concentration for half-maximal inhibition (IC50) is 13.6 nM in experiment [1], 0.398 nM at NAMPT and 1.06 nM in the experiment with PC3 cells.

As for `CC(C)(O)C(=O)N1CCC(c2ccc(C(=O)NCc3ccn4ccnc4c3)cc2)CC1` [Example 230, 4-[1-(2-hydroxy-2-methylpropanoyl)piperidin-4-yl]-N-(imidazo[1,2-a]pyridin-7-ylmethyl)benzamide], the IC50 worked out at 294 nM in experiment [1], 0.169 nM at NAMPT and 7.2 nM with PC3 cells.

On to `O=C(NCc1ccn2ccnc2c1)c1ccc(C2CCN(C(=O)C3CCOC3)CC2)cc1` (stereo not drawn) [Example 231, N-(imidazo[1,2-a]pyridin-7-ylmethyl)-4-[1-(tetrahydrofuran-3-ylcarbonyl)piperidin-4-yl]benzamide], for which the IC50 in experiment [1] is 817 nM; at NAMPT, 0.546 nM; in the experiment on PC3 cells, 35.1 nM.

Take `O=C(NCc1ccn2ccnc2c1)c1ccc(C2CCN(C(=O)C3CCOCC3)CC2)cc1` [Example 232, N-(imidazo[1,2-a]pyridin-7-ylmethyl)-4-[1-(tetrahydro-2H-pyran-4-ylcarbonyl)piperidin-4-yl]benzamide]: the IC50 in experiment [1] was found to be 396 nM; on NAMPT, 0.277 nM; with PC3 cells it was 9.27 nM.

On to `O=C(NCc1ccn2ccnc2c1)c1ccc(C2CCN(C(=O)C3COCCO3)CC2)cc1` (stereo not drawn) [Example 233, 4-[1-(1,4-dioxan-2-ylcarbonyl)piperidin-4-yl]-N-(imidazo[1,2-a]pyridin-7-ylmethyl)benzamide], for which the IC50 in experiment [1] stood at 495 nM; on NAMPT, 0.401 nM; in the experiment on PC3 cells it was 9.37 nM.

Take `O=C(NCc1ccn2ccnc2c1)c1ccc(C2CCN(C(=O)C3CCS(=O)(=O)CC3)CC2)cc1` [Example 234, 4-{1-[(1,1-dioxidotetrahydro-2H-thiopyran-4-yl)carbonyl]piperidin-4-yl}-N-(imidazo[1,2-a]pyridin-7-ylmethyl)benzamide]: the IC50 was determined as 904 nM in experiment [1], 0.736 nM at NAMPT and 105 nM with PC3 cells.

Regarding `O=C(NCc1ccn2ccnc2c1)c1ccc(C2CCN(C(=O)CC3CCCO3)CC2)cc1` (stereo not drawn) [Example 235, N-(imidazo[1,2-a]pyridin-7-ylmethyl)-4-[1-(tetrahydrofuran-2-ylacetyl)piperidin-4-yl]benzamide], the IC50 in experiment [1] came to 494 nM; on NAMPT, 0.369 nM; in the experiment with PC3 cells it was 55.5 nM.

As for `O=C(NCc1ccn2ccnc2c1)c1ccc(C2CCN(C(=O)CC3CCOCC3)CC2)cc1` [Example 236, N-(imidazo[1,2-a]pyridin-7-ylmethyl)-4-[1-(tetrahydro-2H-pyran-4-ylacetyl)piperidin-4-yl]benzamide], the IC50 was found to be 604 nM in experiment [1], 0.243 nM on NAMPT and 13.8 nM with PC3 cells.
